Values of other authors, collected in patent publication US7947677B2, “Spirolactam tricyclic CGRP receptor antagonists” (Merck Sharp & Dohme Corp., priority 2005, dated 2011).
No end group written: not given here.

Key:
middle meningeal artery = conditions: rats, electrical stimulation of the dura mater, prior administration (Williamson et al. 1997)
facial blood flow [1] = conditions: rat, trigeminal ganglion stimulation (Escott et al. 1995)
facial blood flow [2] = conditions: marmoset, electrical stimulation of the trigeminal ganglion (Doods et al. 2000)

Molecule | increase of the diameter of the middle meningeal artery (middle meningeal artery) | increased facial blood flow (facial blood flow [1]) | increase in facial blood flow (facial blood flow [2])
CGRP(8-37): a fragment of CGRP that lacks seven N-terminal amino acid residues; a peptide CGRP antagonist (VTHRLAGLLSRSGGVVKNNFVPTNVGSKAF; ends and bridges not checked; UniProt P06881 90-119, looked up, fragment) | blocked | inhibited | –
NCCCC[C@H](NC(=O)[C@@H](Cc1cc(Br)c(O)c(Br)c1)NC(=O)N1CCC(N2Cc3ccccc3NC2=O)CC1)C(=O)N1CCN(c2ccncc2)CC1 [BIBN4096BS] | – | – | blocked
